Measured values as given in patent US20260029420A1, “ANTI-CB2 ANTIBODIES AND THEIR USE IN A FLOW CYTOMETRY ASSAY TO MEASURE CELL SURFACE CB2 EXPRESSION” (Hoffmann-La Roche Inc., priority 2022, published 2026).
“And” between values parts separate entries of the source, which are not always exact repeats. Equal values may be shown once. Read-outs that look alike come from different tables or passages of the source.

Assays:
[1] = target: T1, CB2 (Homo sapiens, UniProt P34972); assay: CB2 internalization flow cytometry assay in whole blood of diabetic patients and matched healthy participants; type: cell-based
T1 construct: measured in whole blood samples from nine different healthy human volunteers of working-age; endogenous in cells; host or cells: B-cells (and basophils and other leukocytes) in human whole blood
Description: FIGS. 9A-9E: IC50 value determination for RG7774 in different cell sub-populations in whole blood of diabetic patients and matched healthy participants. Median Fluorescence intensity (MFI)±SD of CB2 surface expression in diabetic patients (open dots, dotted line) and age-matched healthy participants (closed dots, continuous line) after exposure to increasing concentrations of RG7774. Mean MFI for individual data points is based on duplicate measures FIG. 9A: B-cells (CD45^+ CD3^− CD14^− CD19^+). FIG. 9B: Basophils (CD45^+ CD3^− CD14^− CD19^− CD193^+ IgE^+). FIG. 9C: Monocytes (CD45^+ CD3^− CD14^+). FIG. 9D: T-cells (CD45^+ CD3^+ CD14^−). FIG. 9E: NK cells (CD45^+ CD3^− CD14^− CD19^− CD193^− IgE^− CD16^+ CD56^+).
In order to understand, the exposure-response relationship for a drug-induced CB2 internalization on blood cell populations, in particular on B-cells and Basophils, whole blood of nine different diabetic type 1 and 2 patients and eight demographically and age-matched healthy participants were treated with 8 compound concentrations in duplicates to determine the IC50 of RG7774.
Human whole blood from diabetic patients and age-matched healthy participants was incubated with RG7774 for 1 hour at 37° C. followed by incubation with the anti-human CB2 Ab 1/622. The expression of CB2 on the surface of the different blood cell types was analyzed using the lineage marker mix specific for B-cells, Basophils, T-cells, NK-cells and Monocytes. MFI values at 0 μM RG7774 were set as 100% baseline receptor expression for each cell type.

[2] = target: CB2 (Macaca fascicularis, UniProt G7NVV5); assay: In vitro CB2 internalization flow cytometry assay in Cynomolgus whole blood; type: cell-based, Cynomolgus monkey
Description: FIG. 10: In vitro IC50 determination of CB2 internalization on B-cells in whole blood from Cynomolgus monkeys. Cynomolgus whole blood was incubated with RG7774 for 1 hour at 37° C. followed by incubation with the anti-human CB2 antibody 1/622. The expression of CB2 on the surface of B-cells was analyzed using a lineage marker mix specific for B-cells and T-cells. The B/T-cell CB2 MFI ratio was calculated and normalized to baseline. 0 μM was set as 100% baseline receptor expression.
In order to establish whether the CB2 surface assay is cross-reactive in Cynomolgus monkey, blood obtained from five different healthy Cynomolgus monkey has been tested in vitro and the individual IC50 values for RG7774 and maximum reduction of CB2 surface expression in whole blood determined using 8 different compound concentrations in duplicates (FIG. 10, Table 8).

[3] = target: T1, CB2; assay: Phase I clinical trial CB2 target engagement on B-cells in healthy volunteers; type: in vivo; details: for time of nadir (lowest CB2 surface expression) post-dose: single oral dose
Description: FIG. 13: Arithmetic Mean (+SD) Percentage Change-from-Baseline (CFB) of CB2-Receptor Target Engagement on B-cells in Blood versus Time Following Single Oral Dose Administration of 0.75 mg to 300 mg RG7774 in the Fasted State (n=6 on active drug vs 2 on placebo per dose level).
FIG. 14: Arithmetic Mean (+SD) Percentage Change-from-Baseline (CFB) of CB2-Receptor Target Engagement on B-cells in Blood versus Time Following Single Oral Dose Administration of 100 mg RG7774 in fasted and fed state.
FIG. 15: Arithmetic Mean (+SD) Percentage Change-from-Baseline (CFB) of CB2-Receptor Target Engagement on B-cells in Blood versus Time Following Multiple Oral Dose Administration of 20 mg to 300 mg RG7774 once daily for 14 Days.
The clinical utility of the newly developed CB2 flow cytometry assay as a measure for target engagement in a clinical setting was confirmed by its successful implementation in a phase I clinical trial in healthy volunteers. In the clinical setting B/T-cell ratio was not used as it introduced higher variability relative to the baseline normalized B-cell data alone.
In a first step, oral administration of a single ascending dose (SAD) of RG7774 in the range between 0.75 mg and 300 mg in the fasted state was assessed. Following oral administration of RG774, the onset of CB2 internalization was rapid, with the nadir (lowest CB2 surface expression) achieved at 4 hours post-dose for doses below 10 mg RG7774, and at 1 hour post-dose for doses at 10 mg to 30 mg RG7774 (FIG. 13). For the two highest tested doses of 100 mg and 300 mg RG7774, the time to reach the nadir shifted with the area under the effect curve increasing. […] This indicates successful target engagement of RG7774 upon oral dosing. Furthermore, the assay was utilized to inform stopping rules for dose escalation in the SAD part of the first-in-human (FIH) trial.
In a third part of the FIH study, the effects of multiple ascending doses (MAD) of 20 mg to 300 mg RG7774 administered once daily over 14 days on CB2 internalization were investigated (FIG. 15).

[4] = individual donors, DM type 1, value in parentheses = excluded outlier subject
[5] = individual donors, matched healthy participants (HP)
[6] = 20 mg to 300 mg once daily over 14 days

T1 sequence (P34972 whole entry): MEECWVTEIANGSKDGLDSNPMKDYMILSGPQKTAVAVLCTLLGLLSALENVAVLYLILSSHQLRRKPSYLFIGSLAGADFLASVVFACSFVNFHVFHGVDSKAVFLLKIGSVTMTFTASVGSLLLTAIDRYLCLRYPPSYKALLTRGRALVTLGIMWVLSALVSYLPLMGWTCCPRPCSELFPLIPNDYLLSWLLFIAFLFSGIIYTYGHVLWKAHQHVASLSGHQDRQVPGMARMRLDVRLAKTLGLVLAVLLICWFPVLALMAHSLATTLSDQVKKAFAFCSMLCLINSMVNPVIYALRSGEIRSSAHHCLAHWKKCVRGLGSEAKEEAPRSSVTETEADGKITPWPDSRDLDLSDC
Sequence of CB2 (Macaca fascicularis, UniProt G7NVV5) (G7NVV5 1-360): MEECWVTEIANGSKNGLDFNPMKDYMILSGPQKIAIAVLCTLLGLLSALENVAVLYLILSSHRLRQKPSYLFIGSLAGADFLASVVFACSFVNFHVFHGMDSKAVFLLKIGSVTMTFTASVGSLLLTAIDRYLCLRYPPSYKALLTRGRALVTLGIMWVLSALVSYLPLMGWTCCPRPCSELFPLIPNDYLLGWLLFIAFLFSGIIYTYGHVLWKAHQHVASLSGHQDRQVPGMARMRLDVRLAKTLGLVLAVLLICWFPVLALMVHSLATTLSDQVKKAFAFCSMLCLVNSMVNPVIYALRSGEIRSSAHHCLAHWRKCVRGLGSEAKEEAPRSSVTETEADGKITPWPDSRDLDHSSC

What does the source list for `Cn1nnnc1Cn1nnc2c(N3CC[C@H](O)C3)nc(C(C)(C)C)nc21` [RG7774, (S)-1-[5-tert-Butyl-3-(1-methyl-1H-tetrazol-5-ylmethyl)-3H-[1,2,3]triazolo [4,5-d]pyrimidin-7-yl]-pyrrolidin-3-ol]?
Emax ([1]; Basophils, both groups on average, read-out: Emax): ~60%; Emax ([1]; DM (all) (n = 8), read-out: Mean Emax (Basophils) ± SD per diagnosis): 60.4 ± 9.5%; Emax ([1]; DM type 1 (n = 3), read-out: Mean Emax (B-cells) ± SD per diagnosis): 60.5 ± 2.8%; Emax ([1]; DM type 1 (n = 3), read-out: Mean Emax (Basophils) ± SD per diagnosis): 65.9 ± 2.2%; Emax ([1]; DM type 2 (n = 5), read-out: Mean Emax (B-cells) ± SD per diagnosis): 53.6 ± 14.5%; Emax ([1]; DM type 2 (n = 5), read-out: Mean Emax (Basophils) ± SD per diagnosis): 57 ± 10.9%; Fold change vs HPs of mean IC50 (CB2 on B-cells) ([1]; DM vs working-age healthy participants): 1.8x; IC50 ([1]; Individual IC50 (B-cells), individual donors, DM type 1, value in parentheses = excluded outlier subject): 0.225 µM and 0.126 µM and 1.06 µM; IC50 ([1]; Individual IC50 (B-cells), individual donors, DM type 2): 0.335 µM and 0.0579 µM; IC50 ([1]; Individual IC50 (Basophils), individual donors, DM type 1, value in parentheses = excluded outlier subject): 0.072 µM and 0.0381 µM and 0.0317 µM and 0.154 µM; IC50 ([1]; Individual IC50 (Basophils), individual donors, DM type 2): 0.061 µM and 0.0257 µM and 0.0546 µM and 0.0229 µM and 0.0444 µM; IC50 ([1]; Individual IC50 (Basophils), individual donors, matched healthy participants (HP)): 0.0221 µM and 0.0235 µM and 0.0265 µM and 0.0581 µM and 0.0558 µM and 0.0773 µM and 0.0801 µM; Emax ([1]; Matched HPs (n = 8), read-out: Mean Emax (Basophils) ± SD per diagnosis): 59.3 ± 4.5%; Fold change vs HPs of mean IC50 (CB2 on B-cells) ([1]; Matched Healthy vs working-age healthy participants): 2.6 x; IC50 ([1]; Mean IC50 (Basophils) ± SD per diagnosis, DM (all) (n = 8)): 0.0438 ± 0.0175 µM; IC50 ([1]; Mean IC50 (Basophils) ± SD per diagnosis, DM type 1 (n = 3)): 0.0472 ± 0.0217 µM; IC50 ([1]; Mean IC50 (Basophils) ± SD per diagnosis, DM type 2 (n = 5)): 0.0417 ± 0.017 µM; IC50 ([1]; Mean IC50 (Basophils) ± SD per diagnosis, Matched HPs (n = 8)): 0.0572 ± 0.0328 µM; fold higher exposure to achieve half maximum internalization of the CB2 on B-cells ([1]; diabetic patients and matched healthy participants relative to working-age healthy participants): 2-3 fold; Individual Emax (B-cells) [1, 4]: 62.79% and (59.35) %; Individual Emax (Basophils) [1, 4]: 68.43% and 64.41% and (57.09) %; Emax ([1]; individual donors, DM type 1, value in parentheses = excluded outlier subject, read-out: Individual Emax (B-cells)): 62%; Emax ([1]; individual donors, DM type 1, value in parentheses = excluded outlier subject, read-out: Individual Emax (Basophils)): 64.9%; Individual Emax (B-cells) ([1]; individual donors, DM type 2): 34.08% and 74.13% and 50.35% and 58.24% and 51.25%; Individual Emax (Basophils) ([1]; individual donors, DM type 2): 41.64% and 62.91% and 54.19% and 70.94%; Individual Emax (B-cells) [1, 5]: 52.88% and 51.18% and 52.64% and 70.18% and 52.40% and 60.22% and 49.16% and 57.11%; Individual Emax (Basophils) [1, 5]: 64.04% and 57.73% and 54% and 58.78% and 62.7%; Emax ([1]; individual donors, matched healthy participants (HP), read-out: Individual Emax (Basophils)): 66.1%; reduction of the CB2 expression ([2]; T-cells, Monocytes and Granulocytes (data not shown)): has not been observed; responder status in vitro ([2]; five Cynomolgus monkeys): One Cynomolgus out of five is a non-responder; desensitization of CB2 internalization [3, 6]: no desensitization was observed; steady-state of PD effect [3, 6]: steady-state was reached during the observation period; impact of food consumption on the pharmacodynamic (PD) effects ([3]; 100 mg single dose, fasted (n=8) vs fed (n=8)): no relevant impact; time to reversal of reduction of CB2 surface receptor expression upon stopping the drug ([3]; after 14 days once daily, not yet fully reversed for the two highest doses): ~1 week; extent of CB2 internalization (CB2 target engagement) ([3]; single ascending dose 0.75 mg to 300 mg, fasted): increased dose-dependently; time of nadir (lowest CB2 surface expression) post-dose ([3]; fasted, doses at 10 mg to 30 mg): 1 h; time of nadir (lowest CB2 surface expression) post-dose ([3]; fasted, doses below 10 mg): 4 h
